≈ marks a conversion by molar mass, not a printed value. Like-named read-outs stand apart in the source and are kept apart here. Bridge positions count the residues as written; N and C are the ends. Square brackets hold non-standard residues; d marks the D form. Peptide text beside a SMILES is read from it. * marks the point of attachment. Ileψ(thiazoline)Cys = CC[C@H](C)[C@H](N)C1=N[C@H](C(=O)*)CS1; dOrn = NCCC[C@@H](N)C(=O)O; X1 = CC[C@H](C)CCCCC(=O)*; Dab = NCC[C@H](N)C(=O)O
Assays:
[1] = system: C. pseudotuberculosis ΔlysX
[2] = system: C. pseudotuberculosis ΔalaDAGS

Row | Molecule | MIC ΔlysX [1] [µg/mL] | wt/ΔlysX (fold-change) [1] [fold-change] | MIC ΔalaDAGS [2] [µg/mL] | protective advantage conferred by lysX [1] | MIC ΔlysX ([1]; 24 h) [µg/mL] | MIC ΔalaDAGS ([2]; 24 h) [µg/mL]
1 | NC[C@H]1O[C@H](O[C@H]2[C@H](O)[C@@H](O[C@H]3O[C@H](CO)[C@@H](O)[C@H](N)[C@H]3O)[C@H](N)C[C@@H]2N)[C@H](O)[C@@H](O)[C@@H]1O [Kanamycin] | 1.25 (≈ 2.58 µM) | 8 | 10 (≈ 20.6 µM) | – | – | –
2 | CCCNC[C@]1(O)[C@H](C)O[C@@H](O[C@H]2[C@H](C)[C@@H](O[C@@H]3O[C@H](C)C[C@H](N(C)C)[C@H]3O)[C@](C)(O)C[C@@H](C)CN[C@H](C)[C@@H](O)[C@](C)(O)[C@@H](CC)OC(=O)[C@@H]2C)C[C@@]1(C)OC [Tulathromycin] | 1.25 (≈ 1.55 µM) | 2 | 2.5 (≈ 3.1 µM) | – | – | –
3 | CO/N=C(\C(=O)N[C@@H]1C(=O)N2C(C(=O)O)=C(CSc3nc(=O)c(=O)[nH]n3C)CS[C@H]12)c1csc(N)n1 [Ceftriaxone] | – | – | – | no protective advantage | – | –
4 | CC[C@H](C)[C@H](NC(=O)CN)C(=O)NCC(=O)N[C@@H](C)C(=O)N[C@H](C(=O)N[C@@H](CC(C)C)C(=O)N[C@@H](CCCCN)C(=O)N[C@H](C(=O)N[C@@H](CC(C)C)C(=O)N[C@H](C(=O)N[C@H](C(=O)NCC(=O)N[C@@H](CC(C)C)C(=O)N1CCC[C@H]1C(=O)N[C@@H](C)C(=O)N[C@@H](CC(C)C)C(=O)N[C@H](C(=O)N[C@@H](CO)C(=O)N[C@@H](Cc1c[nH]c2ccccc12)C(=O)N[C@H](C(=O)N[C@@H](CCCCN)C(=O)N[C@@H](CCCNC(=N)N)C(=O)N[C@@H](CCCCN)C(=O)N[C@@H](CCCNC(=N)N)C(=O)N[C@@H](CCC(N)=O)C(=O)N[C@@H](CCC(N)=O)C(N)=O)[C@@H](C)CC)[C@@H](C)CC)[C@@H](C)O)[C@@H](C)O)C(C)C)C(C)C [Melittin] | – | >4 | – | – | 10 (≈ 3.51 µM) | >40
5 | CNC(C)C1CCC(N)C(OC2C(N)CC(N)C(OC3OCC(C)(O)C(NC)C3O)C2O)O1 (stereo not shown) [Gentamicin] | 0.078 (≈ 0.163 µM) | – | – | – | – | –
6 | CC[C@H](C)[C@H](N)C1=N[C@H](C(=O)N[C@@H](CC(C)C)C(=O)N[C@H](CCC(=O)O)C(=O)N[C@H](C(=O)N[C@H]2CCCCNC(=O)[C@H](CC(N)=O)NC(=O)[C@@H](CC(=O)O)NC(=O)[C@H](Cc3cnc[nH]3)NC(=O)[C@@H](Cc3ccccc3)NC(=O)[C@H]([C@@H](C)CC)NC(=O)[C@@H](CCCN)NC2=O)[C@@H](C)CC)CS1 [Bacitracin] ({Ileψ(thiazoline)Cys}-L[dE]IK[dOrn]I[dF]H[dD]N; lactam 4-C (inferred); N-terminus assumed) | – | 2 | – | – | 3.2 (≈ 2.25 µM) | 6.4 (≈ 4.5 µM)
7 | CC[C@H](C)CCCCC(=O)N[C@@H](CCN)C(=O)N[C@H](C(=O)N[C@@H](CCN)C(=O)N[C@H]1CCNC(=O)[C@H]([C@@H](C)O)NC(=O)[C@H](CCN)NC(=O)[C@H](CCN)NC(=O)[C@H](CC(C)C)NC(=O)[C@@H](Cc2ccccc2)NC(=O)[C@H](CCN)NC1=O)[C@@H](C)O [Polymyxin B] (X1-[Dab]T[Dab][Dab][Dab][dF]L[Dab][Dab]T; lactam 4-C (inferred); N-terminus assumed) | – | – | – | – | 10 (≈ 8.31 µM) | 640 (≈ 532 µM)
8 | CN[C@H](CC(C)C)C(=O)N[C@H]1C(=O)N[C@@H](CC(N)=O)C(=O)N[C@H]2C(=O)N[C@H]3C(=O)N[C@H](C(=O)N[C@H](C(=O)O)c4cc(O)cc(O)c4-c4cc3ccc4O)[C@H](O)c3ccc(c(Cl)c3)Oc3cc2cc(c3O[C@@H]2O[C@H](CO)[C@@H](O)[C@H](O)[C@H]2O[C@H]2C[C@](C)(N)[C@H](O)[C@H](C)O2)Oc2ccc(cc2Cl)[C@H]1O [Vancomycin] | – | 2 | – | – | 0.375 (≈ 0.259 µM) | 0.75 (≈ 0.518 µM)
9 | Nisin | 2.5 | 32 | 80 | – | – | –

Reference: article PMC10580965 (Microbiology Spectrum, 2023)
